Ten compounds from ChEMBL document CHEMBL1146738, “Synthesis and glucose-6-phosphatase inhibitory activity of (thiouriedo)alkanoic acid esters” (Bioorg Med Chem Lett, 2004) can be followed below.

For the test, the target named is T1, Glucose-6-phosphatase catalytic subunit 1 (Rattus norvegicus) (UniProt P43428).
T1 sequence (whole entry): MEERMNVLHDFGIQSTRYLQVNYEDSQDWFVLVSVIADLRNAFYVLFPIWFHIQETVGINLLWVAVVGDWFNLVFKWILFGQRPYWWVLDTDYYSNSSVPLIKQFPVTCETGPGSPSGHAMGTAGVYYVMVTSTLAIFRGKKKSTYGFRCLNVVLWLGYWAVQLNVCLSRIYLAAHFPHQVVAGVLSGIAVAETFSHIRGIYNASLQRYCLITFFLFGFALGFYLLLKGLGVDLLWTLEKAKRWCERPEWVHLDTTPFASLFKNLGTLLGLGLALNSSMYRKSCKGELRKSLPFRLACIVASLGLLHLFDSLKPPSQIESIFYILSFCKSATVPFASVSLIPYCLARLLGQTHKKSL
Kind of test: In vitro inhibition of glucose-6-phosphatase obtained from rat was determined at 100 uM concentration.

The structures appear in SMILES notation.

By inhibition is commonly meant the share of the control response that was lost under treatment. Regarding `N=C(N)/N=C(\S)Nc1ccccn1`, the inhibition came out at 20%.

Compound `CCOC(=O)C(Cc1ccccc1)/N=C(\S)Nc1ccccn1` (stereo not given) returned an inhibition of 29%.

For the compound `CCOC(=O)C(Cc1ccccc1)/N=C(\S)Nc1ccc(Cl)cn1` (stereo not given), the inhibition came out at 50%. In the case of `COC(=O)C(Cc1c[nH]c2ccccc12)/N=C(\S)Nc1ccc(Cl)cn1` (stereo not given) it was 52.2%.

Consider `COC(=O)C/N=C(\S)Nc1ccc(Cl)cn1`, for which the inhibition amounted to 74.6%. For `COC(=O)C(C)/N=C(\S)Nc1ccccn1` (stereo not given), the inhibition turned out to be 17.7%. In the case of `N/N=C(\S)Nc1ccccn1` it was 38.5%; in that of `COC(=O)C(Cc1c[nH]c2ccccc12)/N=C(\S)Nc1ccccn1` (stereo not given), 21.5%; in that of `CCOC(=O)CC/N=C(\S)Nc1ccc(Cl)cn1`, 54.4%.

With `CCOC(=O)CC/N=C(\S)Nc1ccccn1`, the inhibition was determined as 18%.
